Experimental data: US9676715B2, “Bis-indolic derivatives, a process for preparing the same and their uses as a drug” (UNIVERSITE JOSEPH FOURIER, priority 2011, dated 2017)
≈ marks a conversion by molar mass, not a printed value.

Experiments:
[1] = system: S. agalactiae (group B) ATCC 12400; experiment: MIC, microdilution method (9.1); assay type: cell-based, Streptococcus agalactiae; conditions: Streptococcus agalactiae, ATCC12400, 18 h, read-out: MIC
Procedure, shortened: (§1)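 Standard CLSI broth microdilution. Test range 0.50-128 mg/L (final), doubling steps.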

S. aureus ATCC 25923 = experiment: MIC, microdilution method (9.1); assay type: cell-based, Staphylococcus aureus; conditions: Staphylococcus aureus, ATCC25923, read after 18 h, read-out: MIC
Procedure, shortened: as §1

S. aureus ATCC 9144 = experiment: MIC, microdilution method (9.1); assay type: cell-based, Staphylococcus aureus; conditions: Staphylococcus aureus, ATCC9144, read after 18 h, read-out: MIC
Procedure, shortened: as §1

S. aureus SA-1199B = experiment: MIC, microdilution method (9.1); assay type: cell-based, Staphylococcus aureus; conditions: Staphylococcus aureus, SA1199B, 18 h
Procedure, shortened: as §1

[2] = system: HCT116 (human colon tumor); experiment: In vitro cytotoxicity; assay type: cell-based; conditions: HCT-116, HCT116, from 100 μM to 0.005 μM in DMSO, duplicate
[3] = system: Staphylococcus aureus MRSA 252; experiment: MIC, Staphylococcus panel (9.2); assay type: cell-based; conditions: 18 h
Description: (§2) The microdilution method recommended by the Clinical and Laboratory Standard Institute [M07-A9, Vol. 32, N° 2] was used. The activity of bis-indolic compounds 3f and 4 was tested against 35 Staphylococcus bacterial strains corresponding to 12 different species,
(§3) Bacterial inocula were prepared in Mueller Hinton broth (MH2, BioMérieux, Marcy L'Etoile, France). They were dispensed in 96 well microtiter plates (5×10^5 CFU/ml of final inoculum, 192 μL per well). Indolic compounds diluted in pure DMSO (8 μL per well, concentrated 25 times) were added to the wells as to obtain two-fold serial concentrations (0.5-32 mg/L of final concentrations). The final concentration of DMSO was 4% in each well.
(§4) To avoid cross-contaminations in microtiter plates, one row was left blank between each strain tested. Microplates were incubated for 18 h at 37° C. in ambient air. Then MICs were read visually and, in case of visual reading difficulties, confirmed using a spectrophotometer at a wavelength of 630 nm (BioTek® EL808 Absorbance Microplate Reader). MICs corresponded to the minimum bis-indolic compound concentration that allowed complete visual growth inhibition of bacteria. Drug-free cultures served as growth controls.
(§5) Four Staphylococcus aureus strains were used. Two reference strains were provided by the French reference center for Staphylococcus spp. (Lyon, France), including one methicillin-susceptible (MSSA 476) and one methicillin-resistant (MRSA 252) S. aureus strains. The two remaining S. aureus strains were purchased from the CRBIP (Centre de Ressources Biologiques de l'Institut Pasteur): a vancomycin-intermediate strain (ATCC 106414) and a S. aureus strain (SA-1199B) resistant to fluoroquinolones due to overexpression of the NorA multidrug efflux pump.

[4] = system: Staphylococcus aureus SA-1199B (NorA); experiment: MIC, Staphylococcus panel (9.2); assay type: cell-based; conditions: 18 h
Description: as §2, §3, §4, §5

[5] = system: Staphylococcus aureus MSSA 476; experiment: MIC, Staphylococcus panel (9.2); assay type: cell-based; conditions: S. aureus MSSA 476, 4% DMSO, 18 h
Description: as §2, §3, §4, §5

[6] = system: Staphylococcus auricularis (CHUG-Saur1); experiment: MIC, Staphylococcus panel (9.2); assay type: cell-based; conditions: S. auricularis CHUG-Saur1, 4% DMSO, 18 h
Description: as §2, §3, §4
(§6) Coagulase-negative Staphylococcus strains included three reference strains purchased from CRBIP: a methicillin-susceptible S. epidermidis strain (ATCC 12228), a methicillin-resistant S. epidermidis strain (ATCC 49461), and a methicillin-susceptible S. sciuri strain (ATCC 29061). We also used clinical strains belonging to the following coagulase-negative Staphylococcus species: S. auricularis (two strains), S. warneri (five strains), S. capitis (five strains), S. haemolyticus (four strains), S. hominis (seven strains), S. cohnii (two strains), and S. saprophyticus, S. caprae and S. simulans (one strain each). Identification of the clinical strains was obtained using VITEK® 2 System (Biomérieux). The specified strain numbers correspond to an internal number of the bacterial strain collection of our laboratory.

[7] = system: Staphylococcus epidermidis ATCC 12228; experiment: MIC, Staphylococcus panel (9.2); assay type: cell-based; conditions: ATCC12228, S. epidermidis ATCC 12228, 4% DMSO, 18 h
Description: as §2, §3, §4, §6

[8] = system: Staphylococcus epidermidis ATCC 49461; experiment: MIC, Staphylococcus panel (9.2); assay type: cell-based; conditions: ATCC49461, S. epidermidis ATCC 49461, 4% DMSO, 18 h
Description: as §2, §3, §4, §6

[9] = system: Staphylococcus sciuri ATCC 29061; experiment: MIC, Staphylococcus panel (9.2); assay type: cell-based; conditions: Mammaliicoccus sciuri, ATCC29061; S. sciuri ATCC 29061; 4% DMSO, 18 h
Description: as §2, §3, §4, §6

[10] = system: Staphylococcus haemolyticus (CHUG-Shae1); experiment: MIC, Staphylococcus panel (9.2); assay type: cell-based; conditions: S. haemolyticus CHUG-Shae1, 4% DMSO, 18 h
Description: as §2, §3, §4, §6

[11] = system: Staphylococcus warneri (CHUG-Swar1); experiment: MIC, Staphylococcus panel (9.2); assay type: cell-based; conditions: S. warneri CHUG-Swar1, 4% DMSO, 18 h
Description: as §2, §3, §4, §6

[12] = system: Staphylococcus hominis (CHUG-Shom1); experiment: MIC, Staphylococcus panel (9.2); assay type: cell-based; conditions: S. hominis CHUG-Shom1, 4% DMSO, 18 h
Description: as §2, §3, §4, §6

[13] = system: Staphylococcus capitis (CHUG-Scap1); experiment: MIC, Staphylococcus panel (9.2); assay type: cell-based; conditions: S. capitis CHUG-Scap1, 4% DMSO, 18 h
Description: as §2, §3, §4, §6

In the case of `Cn1cc(C(=O)NC(CNC(=O)OC(C)(C)C)c2c[nH]c3ccc(Br)cc23)c2cc(Br)ccc21` (centres unmarked) [Compound 7, tert-Butyl (2-(5-bromo-1-methyl-1H-indole-3-carboxamido)-2-(5-bromo-1H-indol-3-yl)ethyl) carbamate], the MIC [1] is reported as > 128 µg/mL, the MIC (S. aureus ATCC 25923) is reported as > 128 µg/mL and the MIC (S. aureus ATCC 9144) is reported as > 128 µg/mL. For the same compound, the MIC (S. aureus SA-1199B) was > 128 µg/mL, the IC50 ([2]; first value) was 10.1 µM and the IC50 ([2]; second value) was 13.1 µM.
`NCCCCNC(=O)C(NC(=O)c1c[nH]c2ccc(Br)cc12)c1c[nH]c2ccc(Br)cc12` (centres unmarked) [Compound 16, N-(2-((4-Aminobutyl)amino)-1-(5-bromo-1H-indol-3-yl)-2-oxoethyl)-5-bromo-1H-indole-3-carboxamide] was tested, and the MIC [1] was > 128 µg/mL, the MIC (S. aureus ATCC 25923) was 8 µg/mL (≈ 14.3 µM) and the MIC (S. aureus ATCC 9144) was 8 µg/mL (≈ 14.3 µM). For the same compound, the IC50 ([2]; first value) was 52.9 µM and the IC50 ([2]; second value) was 42.8 µM.
Work on `CC(C)(C)OC(=O)NCC(NC(=O)c1c[nH]c2ccc(Br)cc12)c1c[nH]c2ccc(Br)cc12` (centres unmarked) [Compound 3f, tert-Butyl(2-(5-bromo-1H-indol-3-yl)-2-(5-bromo-1H-indolyl-3-carboxamido)ethyl)carbamate] yielded an MIC [1] of 32 µg/mL (≈ 55.5 µM), an MIC (S. aureus ATCC 25923) of 1 µg/mL (≈ 1.74 µM) and an MIC (S. aureus ATCC 9144) of 1 µg/mL (≈ 1.74 µM). It also gave an MIC (S. aureus SA-1199B) of 2 µg/mL (≈ 3.47 µM), an MIC [3] of 2 µg/mL (≈ 3.47 µM) and an MIC [4] of 2 µg/mL (≈ 3.47 µM). It also gave an MIC [5] of 2 µg/mL (≈ 3.47 µM), an IC50 ([2]; first value) of 5.24 µM and an IC50 ([2]; second value) of 5.05 µM. The MIC [6] was 2 µg/mL (≈ 3.47 µM), the MIC [7] was 2 µg/mL (≈ 3.47 µM) and the MIC [8] was 2 µg/mL (≈ 3.47 µM). It also gave an MIC [9] of 4 µg/mL (≈ 6.94 µM), an MIC [10] of 4 µg/mL (≈ 6.94 µM) and an MIC [11] of 2 µg/mL (≈ 3.47 µM). For the same compound, the MIC [12] was 4 µg/mL (≈ 6.94 µM) and the MIC [13] was 4 µg/mL (≈ 6.94 µM).
Work on `CC(NC(=O)c1c[nH]c2ccc(Br)cc12)c1c[nH]c2ccc(Br)cc12` (centres unmarked) [Compound 4, 5-Bromo-N-(1-(5-bromo-1H-indol-3-yl)ethyl)-1H-indole-3-carboxamide] yielded an MIC (S. aureus ATCC 25923) of 2 µg/mL (≈ 4.34 µM), an MIC (S. aureus ATCC 9144) of 2 µg/mL (≈ 4.34 µM) and an MIC (S. aureus SA-1199B) of 2 µg/mL (≈ 4.34 µM). For the same compound, the MIC [3] was 2 µg/mL (≈ 4.34 µM), the MIC [4] was 2 µg/mL (≈ 4.34 µM) and the MIC [5] was 1 µg/mL (≈ 2.17 µM). For the same compound, the IC50 ([2]; first value) was 6.43 µM, the IC50 ([2]; second value) was 10 µM and the MIC [6] was 1 µg/mL (≈ 2.17 µM). The MIC [7] was 1 µg/mL (≈ 2.17 µM), the MIC [8] was 1 µg/mL (≈ 2.17 µM) and the MIC [9] was 2 µg/mL (≈ 4.34 µM). It also gave an MIC [10] of 2 µg/mL (≈ 4.34 µM), an MIC [11] of 1 µg/mL (≈ 2.17 µM) and an MIC [12] of 1 µg/mL (≈ 2.17 µM). The MIC [13] was 2 µg/mL (≈ 4.34 µM).
